Assay results taken from publication PMC8954350, “Non-Canonical Cannabinoid Receptors with Distinct Binding and Signaling Properties in Prostate and Other Cancer Cell Types Mediate Cell Death” (International Journal of Molecular Sciences, 2022).
Read-outs that look alike come from different tables or passages of the source.

Tests used:
[1] = tested on: CBRs expressed in PC-3 membranes; assay: [^3H]WIN-55,212-2 competitive binding screen, PC-3 membranes; set-up: species or system human
Description: (§1) The assay was conducted as previously detailed. […] All binding reactions were conducted in triplicate, in a final volume of 1 mL, and, following mixing, were incubated for 20 min in a 37 °C water bath to achieve equilibrium. After incubation, reactions were terminated by rapid vacuum filtration through Whatman GF/B glass fiber filters (Brandel; Gaithersburg, MD, USA), followed by three washes of 4 mls of ice-cold filtration buffer (50 mM Tris, pH 7.4, and 0.05% bovine serum albumin). Samples were punched out from filter papers into scintillation vials, to which 4 mls of ScintiverseTM-BDR cocktail scintillation fluid (Fisher Scientific; Hampton, NH, USA) was added. Filters were incubated at room temperature for 24 h in scintillation fluid, vortexed, and radioactivity (measured as DPMs) was quantified via a liquid scintillation spectrophotometer (Tri Carb 2100 TR Liquid Scintillation Analyzer, Packard Instruments, Meriden, CT, USA).
(§2) These experiments were conducted to screen well-characterized cannabinoid ligands with high affinity for canonical CB1 and/or CB2Rs for binding to CBRs expressed in prostate cancer cells lines, as detailed in [33]. […] All binding reactions were conducted in triplicate, in a final volume of 1 mL, and, following mixing, were incubated for 20 min in a 37 °C water bath to achieve equilibrium. After incubation, reactions were terminated by rapid vacuum filtration and processed for radioactivity, as detailed in Section 4.5.1.

[2] = tested on: CBRs expressed in DU-145 membranes; assay type: binding, human
Description: as §1, §2

[3] = target: T1, canonical CBRs stably expressed in CHO-hCB2 (Homo sapiens, UniProt P34972); assay: [^35S]GTPγS binding, CHO-hCB2 homogenates; assay type: biochemical; settings: 10 μM
T1 construct: expressed in transfected cells
T1 sequence (P34972 whole entry): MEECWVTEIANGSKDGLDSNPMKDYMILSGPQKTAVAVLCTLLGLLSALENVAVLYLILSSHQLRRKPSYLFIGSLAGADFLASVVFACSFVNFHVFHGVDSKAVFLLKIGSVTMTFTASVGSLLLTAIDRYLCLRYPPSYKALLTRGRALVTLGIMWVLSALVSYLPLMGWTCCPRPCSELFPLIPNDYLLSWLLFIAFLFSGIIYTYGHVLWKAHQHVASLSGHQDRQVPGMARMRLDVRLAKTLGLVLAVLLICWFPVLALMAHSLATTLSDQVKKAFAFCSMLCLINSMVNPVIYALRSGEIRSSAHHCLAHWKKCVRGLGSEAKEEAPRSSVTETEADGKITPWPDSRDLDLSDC
Description: Non-specific binding was defined as radioactivity remaining in the presence of 10 μM of non-radioactive GTPγS and subtracted from total binding to determine specific [^35S]GTPγS binding. All binding reactions were conducted in triplicate, in a final volume of 1 mL, and, following mixing, were incubated for 30 min at 30 °C. After incubation, reactions were terminated by rapid vacuum filtration through Whatman GF/B glass fiber filters (Brandel; Gaithersburg, MD, USA), followed by three washes of 4 mls of ice-cold filtration buffer (50 mM Tris, pH 7.4, and 0.05% bovine serum albumin). Samples were punched out from filter papers into scintillation vials, to which 4 mls of ScintiverseTM-BDR cocktail scintillation fluid (Fisher Scientific; Hampton, NH, USA) was added. Filters were incubated at room temperature for 24 h in scintillation fluid, vortexed, and radioactivity (measured as DPMs) was determined via a liquid scintillation spectrophotometer (Tri Carb 2100 TR Liquid Scintillation Analyzer, Packard Instruments, Meriden, CT, USA).

[4] = target: T1, canonical CBRs stably expressed in CHO-hCB2; assay: Adenylyl cyclase modulation in whole CHO-hCB2 cells; assay type: cell-based; settings: 10 μM
Description: Growth media contained FetalPlex (10%) and 1% pennicillin/streptomycin. Cells were cultured overnight in a humidified incubator maintained at 37 °C with 5% CO2. For some experiments, a subset of wells were treated overnight with pertussis toxin (2 μL/mL) to abolish Gi/Go protein-mediated signaling. […] After [^3H]adenine incubation, media was replaced with 0.5 mL of a Krebs–Ringer–HEPES solution (10 mM HEPES, 110 mM NaCl, 25 mM Glucose, 55 mM Sucrose, 5 mM KCl, 1 mM MgCl2, and 1.8 mM CaCl2 at pH 7.4) containing 0.5 mM IBMX, 10 μM forskolin and a receptor-saturating concentration (10^−5 M) of cannabinoid ligands to be examined. Plates were then floated in a 37 °C water bath for 15 min, followed by termination of reactions by addition of 50 μL of 2.2 N HCl to each well. Then, [^3H]cAMP was isolated by alumina column chromatography and collection in a 4 mL elution volume. Finally, 10 mL of Scintiverse^TM BD Cocktail scintillation fluid (Fisher Scientific; Hampton, NH, USA) was added to eluates and radioactivity (quantified as DPMs) was quantified via a liquid scintillation spectrophotometer (Tri Carb 2100 TR Liquid Scintillation Analyzer, Packard Instruments, Meriden, CT, USA).

DU-145 cells [5] = assay: LDH cytotoxicity, DU-145 cells; assay type: cell-based, human; settings: 24 h
Description: DU-145 cells were seeded at a density of 130 × 10^3 cells/well in 6-well plates and maintained in an incubator at 37 °C with 5% CO2 for 24 h. […] Treated cells were incubated for an additional 24 h, followed by quantification of LDH release. LDH released from damaged or dying cells oxidizes lactate to produce NADH which then reacts with a water-soluble tetrazolium salt (WST) reagent to produce a yellow-colored product. The intensity of the yellow-colored product was detected with an OD reading at 450 nm (quantified by a BioTek microplate reader interfaced with SoftMax Pro 5.4.5 software; Winooski, VT, USA) and was directly proportional to the amount of LDH released. Percent cytotoxicity was calculated according to the manufacturer’s protocol as the following: % Cytotoxicity=OD450 Supernatant/Supernatant+Lysate

DU-145 cells [6] = assay: ATP-dependent cell viability, DU-145 cells; assay type: cell-based, human; settings: co-incubation with 10 μM ligand, 24 h
Description: Adenosine 5′-triphosphate (ATP) levels were quantified as a measure of DU-145 cell viability in response to cannabinoid treatement using an ATP-luciferase-based bioluminescence assay kit (CellTiter-Glo®, Sigma, MO, USA) and BioTek microplate reader (Winooski, VT, USA). DU-145 cells were seeded at a density of 8 × 10^3 cells/well in a 96-well plate and incubated for 24 h at 37 °C with 5% CO2. The next day, cells were treated with either vehicle or experimental drugs (10 or 50 μM) and incubated for another 24 h at 37 °C with 5% CO2. ATP levels were assessed following incubation by interpolation from an ATP standard curve according to the manufacturer’s protocol, as described previously.

DU-145 cells [7] = assay: Mitochondrial membrane potential (JC-1 staining), DU-145 cells; assay type: cell-based, human; settings: 24 h; for mitochondrial membrane potential (MMP) depolarization: JC-1
[8] = target: T2, canonical mouse CB1Rs (mouse brain) (Mus musculus, UniProt P47746); assay type: binding; settings: 1 μM ligand, mouse brain membranes
T2 construct: membranes prepared from mouse brain containing a high density of mouse CB1 receptors (mCB1); from tissue; host or cells: mouse brain membrane homogenate
T2 sequence (P47746 whole entry): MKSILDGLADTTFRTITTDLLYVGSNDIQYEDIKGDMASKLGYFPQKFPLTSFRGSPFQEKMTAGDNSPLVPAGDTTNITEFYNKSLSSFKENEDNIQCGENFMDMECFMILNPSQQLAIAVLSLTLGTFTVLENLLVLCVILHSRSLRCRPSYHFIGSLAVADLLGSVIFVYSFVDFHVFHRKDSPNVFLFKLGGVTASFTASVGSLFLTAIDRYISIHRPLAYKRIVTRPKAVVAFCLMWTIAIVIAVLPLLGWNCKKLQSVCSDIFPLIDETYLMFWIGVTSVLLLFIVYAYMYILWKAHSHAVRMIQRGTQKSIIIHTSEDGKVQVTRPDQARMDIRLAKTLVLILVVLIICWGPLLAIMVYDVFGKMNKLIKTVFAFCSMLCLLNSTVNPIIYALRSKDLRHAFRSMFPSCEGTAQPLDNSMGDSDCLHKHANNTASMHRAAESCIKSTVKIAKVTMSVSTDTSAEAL
Description: as §1

[9] = tested on: CBRs expressed in C6-glioma cells; assay: [^3H]CP-55,940 competitive binding screen, C6-glioma membranes; set-up: species or system mouse; settings: 1 μM ligand, 0.2 nM radioligand
Description: as §1

[10] = tested on: CBRs expressed in PC-12 cells; assay: [^3H]CP-55,940 competitive binding screen, PC-12 membranes; set-up: species or system rat; settings: 1 μM ligand, 0.2 nM radioligand
Description: as §1

[11] = tested on: CBRs expressed in HeLa cells; assay: [^3H]CP-55,940 competitive binding screen, HeLa membranes; set-up: species or system human; settings: 1 μM ligand, 0.2 nM radioligand
Description: as §1

[12] = tested on: CBRs expressed in PC-3 cells; assay: [^3H]CP-55,940 competitive binding screen, PC-3 membranes; set-up: species or system human; settings: 1 μM ligand, 0.2 nM radioligand
Description: as §1

[13] = tested on: CBRs expressed in DU-145 cells; assay: [^3H]CP-55,940 competitive binding screen, DU-145 membranes; set-up: species or system human; settings: 1 μM ligand, 0.2 nM radioligand
Description: as §1

[14] = tested on: CBRs expressed in C6-glioma cells; assay: [^3H]WIN-55,212-2 competitive binding screen, C6-glioma membranes; set-up: species or system mouse; settings: 1 μM ligand, 1 nM radioligand
Description: as §1

[15] = tested on: CBRs expressed in PC-12 cells; assay: [^3H]WIN-55,212-2 competitive binding screen, PC-12 membranes; set-up: species or system rat; settings: 1 μM ligand, 1 nM radioligand
Description: as §1

[16] = tested on: CBRs expressed in HeLa cells; assay: [^3H]WIN-55,212-2 competitive binding screen, HeLa membranes; set-up: species or system human; settings: 1 μM ligand, 1 nM radioligand
Description: as §1

[17] = tested on: canonical human CB1Rs (CHO-hCB1); set-up: method as in PMID 34592231; settings: 1 μM ligand, 0.2 nM radioligand, CHO-hCB1 membranes; cited from earlier work
[18] = tested on: canonical human CB2Rs (CHO-hCB2); set-up: method as in PMID 34592231; settings: 1 μM ligand, 0.2 nM radioligand, CHO-hCB2 membranes; cited from earlier work
[19] = tested on: canonical human CB1Rs (CHO-hCB1); set-up: method as in PMID 34592231; settings: 1 μM ligand, 1 nM radioligand, CHO-hCB1 membranes; cited from earlier work
[20] = tested on: canonical human CB2Rs (CHO-hCB2); set-up: method as in PMID 34592231; settings: 1 μM ligand, 1 nM radioligand, CHO-hCB2 membranes; cited from earlier work

For COc1ccc(C(=O)c2c(C)n(CCN3CCOCC3)c3cc(I)ccc23)cc1 [AM-630], the “displacement of [^3H]WIN-55,212-2” value ([1]; 1 μM ligand, 1 nM radioligand, PC-3 membranes) was “failed to displace”, the “displacement of [^3H]WIN-55,212-2” value [2] was “failed to displace” and the “decrease in basal G protein activity ([^35S]GTPγS binding)” value [3] was 26.15 ± 5.15%. For the same compound, the “enhancement of forskolin-stimulated intracellular cAMP levels” value [4] was 117 ± 27.1%, the LDH release (DU-145 cells [5]; 10 μM) was “No significant effects” and the “increase in LDH release” value (DU-145 cells [5]; 50 μM) was “neither low (10 μM) nor high (50 μM) concentrations of WIN-55,212-2, AM-251 or AM-630 altered LDH release”. The “attenuation of GW-405833 (50 μM)-induced LDH release” value (DU-145 cells [5]; co-incubation with 10 μM ligand) was “significantly attenuated”, the “attenuation of GW-405833 (50 μM)-induced reduction in ATP concentrations” value (DU-145 cells [6]) was “significantly attenuated” and the “MMP on co-incubation with GW-405833 (10 μM)” value (DU-145 cells [7]; 10 μM ligand co-incubated) was “MMP was not significantly reduced from vehicle-treated levels”. For the same compound, the “mitochondrial membrane potential (MMP) depolarization” value (DU-145 cells [7]; 10 μM) was “had no effect on MMP” and the “mitochondrial membrane potential (MMP) depolarization” value (DU-145 cells [7]; 50 μM) was “had no effect on MMP”.

For CCCCCCC(C)(C)c1ccc([C@@H]2C[C@H](O)CC[C@H]2CCCO)c(O)c1 [CP-55,940], the “displacement of [^3H]CP-55,940” value ([8]; 0.2 nM radioligand) was “produced near or complete displacement”, the “displacement of [^3H]WIN-55,212-2 (Figure 1B)” value (from here on “displacement … (Figure 1B)”) ([8]; 1 nM radioligand) was “produced near or complete displacement” and the “displacement of [^3H]CP-55,940” value [9] was “neither the non-selective CBR ligand CP-55,940 nor WIN-55,212-2 produced significant displacement”. The “displacement of [^3H]CP-55,940” value [10] was “neither the non-selective CBR ligand CP-55,940 nor WIN-55,212-2 produced significant displacement”, the “displacement of [^3H]CP-55,940” value [11] was “neither the non-selective CBR ligand CP-55,940 nor WIN-55,212-2 produced significant displacement” and the “displacement of [^3H]CP-55,940” value [12] was “neither the non-selective CBR ligand CP-55,940 nor WIN-55,212-2 produced significant displacement”. For the same compound, the “displacement of [^3H]CP-55,940” value [13] was “neither the non-selective CBR ligand CP-55,940 nor WIN-55,212-2 produced significant displacement”, the “displacement … (Figure 1B)” value [14] was “only WIN-55,212-2, and not CP-55,940, significantly displaced” and the “displacement … (Figure 1B)” value [15] was “only WIN-55,212-2, and not CP-55,940, significantly displaced”. For the same compound, the “displacement … (Figure 1B)” value [16] was “only WIN-55,212-2, and not CP-55,940, significantly displaced”, the “displacement of [^3H]WIN-55,212-2” value [1] was “only WIN-55,212-2, and not CP-55,940, significantly displaced” and the “displacement of [^3H]WIN-55,212-2” value [2] was “only WIN-55,212-2, and not CP-55,940, significantly displaced”. For the same compound, the “displacement of [^3H]CP-55,940” value [17] was “produced near or complete displacement”, the “displacement of [^3H]CP-55,940” value [18] was “produced near or complete displacement” and the “displacement … (Figure 1B)” value [19] was “produced near or complete displacement”. For the same compound, the “displacement … (Figure 1B)” value [20] was “produced near or complete displacement”.
